# Experimental data reported in US20080226596A1, “Therapeutic compositions and methods useful in treating hepatitis” (priority 2006, published 2008).
# Entries after “also recorded” stand apart in the source; their conditions may differ.
# Key:
# [1] = system: Renca tumor-infiltrating immune cells; assay: Renca tumor-infiltrating immune cells, immunohistochemistry; design: species or system Balb/c mice; settings: mouse, in vivo
# Method: Major internal organs and Renca tumors harvested from mice were fixed in 10% formalin or snap frozen in liquid nitrogen. H & E-stained tissue sections of the fixed samples were prepared and evaluated by microscopy as described previously (Yi, T., M. K. Pathak, D. J. Lindner, M. E. Ketterer, C. Farver, and E. C. Borden. 2002. Anticancer activity of sodium stibogluconate in synergy with IFNs. J Immunol 169:5978). Preparation of frozen tissue sections and immunohistochemistry were performed following established procedures (Joliat, M. J., P. A. Lang, B. L. Lyons, L. Burzenski, M. A. Lynes, T. Yi, J. P. Sundberg, and L. D. Shultz. 2002. Absence of CD5 dramatically reduces progression of pulmonary inflammatory lesions in SHP-1 protein-tyrosine phosphatase-deficient ‘viable motheaten’ mice. J Autoimmun 18:105). The antibodies used for immunohistochemistry were anti-CD4 (rat mAb, clone GK1.5, BD Biosciences, Franklin Lakes, N.J.), anti-CD8 (rat mAb, clone 53-6.7.5, BD Biosciences, Franklin Lakes, N.J.), anti-F4/80 (rat mAb, clone A3-1, Serotec, Oxford, UK) and anti-Asialo GM1 (rabbit polyclonal, Cedarlane, Hornby, Canada). […] Tissue sections of 2 mice/group were evaluated. The number of immune cells was semi-quantified based on the following scheme: […], 0-1 positive cells/40×field; +, 2-5 positive cells/40×field; ++, 6-10 positive cells/40×field, etc.
# [2] = target: T1, PRL-3 (Homo sapiens, UniProt O75365); assay: In vitro PTPase assay, recombinant PRL-3, DiFMUP substrate; format: biochemical; settings: comparable conditions
# T1 construct: GST (N); made in house; host or cells: DHSa (DH5a) bacteria
# Method: In vitro PTPase assays were used to determine the effects of compounds on recombinant PTPases, following established procedures using a synthetic phosphotyrosine peptide or DiFMUP as the substrate (Pathak et al., J. Imumol. 167, 3391 (2001)). Briefly, individual PTPases (0.1 µg/reaction) in 50 μL of PTPase buffer (50 mM Tris, pH 7.4) were incubated at 22° C. for 10 minutes or as indicated in the absence or presence of inhibitory compounds. Substrates (0.2 mM phosphotyrosine peptide) were then added and allowed to react at 22° C. for 18 hrs. PTPase activity of individual reactions was measured by adding 100 µL of malachite green solution (UBI) and then quantifying the amounts of free phosphate cleaved by the PTPase from the peptide substrate by spectrometry (OD660 nm). PTPase assays using DiFMUP as a substrate were conducted following a previously described procedure (Matter, et al., Biochem. Biophys. Res. Comm. 283, 1061 (2001)). Relative PTPase activities were calculated based on the formula: (PTPase activity in the presence of an inhibitory compound/PTPase activity in the absence of the compound)× 100%. To assess the reversibility of PTPase inhibition, GST fusion proteins of the PTPases bound on glutathione beads (Pharmacia) were pre-incubated with cold Tris buffer (50 mM Tris, pH 7.0) or Tris buffer containing the inhibitor at 4° C. for 30 minutes. The beads were then washed three times in cold Tris buffer or not washed prior to subjecting to in vitro PTPase assays.
# [3] = system: TF-1 cells; assay: TF-1 cell proliferation assay; format: cell-based, human
# Method: The murine hematopoietic cell line Baf3 was maintained in RPMI 1640 medium supplemented with 10% fetal calf serum (FCS) and murine IL-3 (20 units/ml) as described previously in Damen et al., J. Biol. Chem. 270, 23402 (1995). Human myeloid cell line TF-1 was maintained in RPMI 1640 supplemented with 10% FCS and 40 ng/ml of recombinant human GM-CSF as described previously in Thomassen et al., Clin. Immunol. 95, 85 (2000). For cell proliferation assays, cells were washed in 10% FCS medium twice, resuspended in 10% FCS medium, incubated at 37° C. for 16 hours, and then cultured at 37° C. in 10% FCS medium containing various amounts of cytokines, sodium stibogluconate, or potassium antimonyl tartrate for 3-6 days as indicated. The cell numbers in proliferation assays were determined by an MTT assay or by microscopic cell counting as indicated.
# [4] = system: DR cells; assay: DR lymphoma cell growth, MTT assay; format: cell-based, human; settings: 100 μg/ml, day 6
# Method: (§1) For cell proliferation assays, cells were grown in 10% FCS culture medium containing various amounts of IFNs and/or sodium stibogluconate in 96 well plates and cultured at 37° C. for 3 or 6 days as indicated. The numbers of viable cells in proliferation assays were determined by MTT assays as described in Phatak et al., J. Immunol. 167, 3391 (2001).
# [5] = system: NB4 cells; assay: NB4 proliferation, MTT assay; format: cell-based, human; settings: 12.5-400 μg/ml
# Method: The NB4 cell line (Lanotte et al., Blood 77, 1080 (1991)) was a gift from Dr. Dan Lindner of the Cleveland Clinic Foundation. […] and U937 cell lines were purchased from American Type Culture Collection (Rockville, Md.). These human […] cell lines were maintained in RPMI 1640 medium supplemented with 10% fetal calf serum (FCS). For cell proliferation assays, cells were cultured at 37° C. in 10% FCS medium containing various amounts of sodium stibogluconate for 6 days. The cell numbers in the cultures were determined by an MTT assay as described previously in Mosmann, J. Immunol. Methods 65, 55 (1983).
# [6] = system: MDA231 cells; assay: MDA231 breast cancer cell growth, MTT assay; format: cell-based, human; settings: single agent, 50-100 μg/ml, day 6
# Method: as §1
# T1 sequence (O75365 whole entry): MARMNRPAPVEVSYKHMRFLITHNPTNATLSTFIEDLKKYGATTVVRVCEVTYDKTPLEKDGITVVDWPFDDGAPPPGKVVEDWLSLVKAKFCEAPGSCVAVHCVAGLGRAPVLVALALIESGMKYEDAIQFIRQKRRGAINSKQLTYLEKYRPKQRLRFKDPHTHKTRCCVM
smiles,measurement,setting,value
O.O.O.O.O.O.O.O.O.O=C([O-])[C@@H]1[O][Sb]2([O-])([O][Sb]34([OH])[O][C@H]([C@H](O)CO)[C@H]([O]3)[C@H](C(=O)[O-])[O]4)[O][C@H]([C@H](O)CO)[C@@H]1[O]2.[Na+].[Na+].[Na+] [sodium stibogluconate],numbers of tumor-infiltrating T cells or NK cells,[1],little effect
same,inhibition of PRL-3 with DiFMUP substrate,[2],also detected
same,effect on GM-CSF-induced cell growth,[3]; 12.5-50 μg/ml,no negative effect on GM-CSF-induced cell growth
same,GM-CSF-induced TF-1 proliferation,"[3]; sodium stibogluconate 50 μg/ml, GM-CSF 5-40 ng/ml",augmented
same,killing of DR cells,[4],complete or near complete killing
same,proliferation of NB4 cells,[5],markedly inhibited
same,killing of MDA231 cells,[6],killed all cells; also recorded: complete or near complete killing
